Assay results as given in ChEMBL document CHEMBL4414672, “Synthesis of certain benzothieno[3,2-d]pyrimidine derivatives as a selective SIRT2 inhibitors” (Eur J Med Chem, 2020).

Tests used:
Assay type in all cases: functional
[1] = tested on: RXF 393; assay: Growth inhibition of human RXF393 cells at 10^-5 M incubated for 48 hrs by sulforhodamine B assay; conditions: RXF 393, 48 h, read-out: GI
[2] = tested on: MOLT-4; assay: Growth inhibition of human MOLT4 cells at 10^-5 M incubated for 48 hrs by sulforhodamine B assay; conditions: MOLT-4, 48 h, read-out: GI
[3] = tested on: SW-620; assay: Growth inhibition of human SW620 cells at 10^-5 M incubated for 48 hrs by sulforhodamine B assay; conditions: SW-620, 48 h, read-out: GI
[4] = tested on: NCI-H522; assay: Growth inhibition of human NCI-H522 cells at 10^-5 M incubated for 48 hrs by sulforhodamine B assay; conditions: NCI-H522, 48 h, read-out: GI
[5] = tested on: TK-10; assay: Growth inhibition of human TK10 cells at 10^-5 M incubated for 48 hrs by sulforhodamine B assay; conditions: TK-10, 48 h, read-out: GI
[6] = tested on: Malme-3M; assay: Growth inhibition of human MALME-3M cells at 10^-5 M incubated for 48 hrs by sulforhodamine B assay; conditions: read-out: GI
[7] = tested on: SF-268; assay: Growth inhibition of human SF268 cells at 10^-5 M incubated for 48 hrs by sulforhodamine B assay; conditions: SF-268, 48 h, read-out: GI
[8] = tested on: SK-MEL-28; assay: Growth inhibition of human SK-MEL-28 cells at 10^-5 M incubated for 48 hrs by sulforhodamine B assay; conditions: SK-MEL-28, 48 h, read-out: GI
[9] = tested on: DU-145; assay: Growth inhibition of human DU145 cells at 10^-5 M incubated for 48 hrs by sulforhodamine B assay; conditions: DU-145, 48 h, read-out: GI
[10] = tested on: NCI-H460; assay: Growth inhibition of human NCI-H460 cells at 10^-5 M incubated for 48 hrs by sulforhodamine B assay; conditions: NCI-H460, 48 h, read-out: GI
[11] = tested on: SK-OV-3; assay: Growth inhibition of human SKOV3 cells at 10^-5 M incubated for 48 hrs by sulforhodamine B assay; conditions: SK-OV-3, 48 h, read-out: GI
[12] = tested on: M14; assay: Growth inhibition of human M14 cells at 10^-5 M incubated for 48 hrs by sulforhodamine B assay; conditions: M14, 48 h, read-out: GI
[13] = tested on: OVCAR-5; assay: Growth inhibition of human OVCAR5 cells at 10^-5 M incubated for 48 hrs by sulforhodamine B assay; conditions: OVCAR-5, 48 h, read-out: GI
[14] = tested on: NCI-H23; assay: Growth inhibition of human NCI-H23 cells at 10^-5 M incubated for 48 hrs by sulforhodamine B assay; conditions: NCI-H23, 48 h, read-out: GI
[15] = tested on: HCT-15; assay: Growth inhibition of human HCT15 cells at 10^-5 M incubated for 48 hrs by sulforhodamine B assay; conditions: HCT-15, 48 h, read-out: GI
[16] = tested on: CCRF-CEM; assay: Growth inhibition of human CCRF-CEM cells at 10^-5 M incubated for 48 hrs by sulforhodamine B assay; conditions: read-out: GI
[17] = tested on: ACHN; assay: Growth inhibition of human ACHN cells at 10^-5 M incubated for 48 hrs by sulforhodamine B assay; conditions: read-out: GI
[18] = tested on: NCI/ADR-RES; assay: Growth inhibition of human NCI/ADR-RES cells at 10^-5 M incubated for 48 hrs by sulforhodamine B assay; conditions: read-out: GI
[19] = tested on: T47D; assay: Growth inhibition of human T47D cells at 10^-5 M incubated for 48 hrs by sulforhodamine B assay; conditions: read-out: GI
[20] = tested on: A498; assay: Growth inhibition of human A498 cells at 10^-5 M incubated for 48 hrs by sulforhodamine B assay; conditions: A498, 48 h, read-out: GI
[21] = tested on: HL-60(TB); assay: Growth inhibition of human HL-60(TB) cells at 10^-5 M incubated for 48 hrs by sulforhodamine B assay; conditions: HL-60, 48 h, read-out: GI
[22] = tested on: SF-295; assay: Growth inhibition of human SF295 cells at 10^-5 M incubated for 48 hrs by sulforhodamine B assay; conditions: SF-295, 48 h, read-out: GI
[23] = tested on: SNB-19; assay: Growth inhibition of human SNB19 cells at 10^-5 M incubated for 48 hrs by sulforhodamine B assay; conditions: SNB-19, 48 h, read-out: GI
[24] = tested on: A549; assay: Growth inhibition of human A549/ATCC cells at 10^-5 M incubated for 48 hrs by sulforhodamine B assay; conditions: A549, 48 h, read-out: GI
[25] = tested on: OVCAR-3; assay: Growth inhibition of human OVCAR3 cells at 10^-5 M incubated for 48 hrs by sulforhodamine B assay; conditions: OVCAR-3, 48 h, read-out: GI
[26] = tested on: UACC-62; assay: Growth inhibition of human UACC62 cells at 10^-5 M incubated for 48 hrs by sulforhodamine B assay; conditions: UACC-62, 48 h, read-out: GI
[27] = tested on: MCF7; assay: Growth inhibition of human MCF7 cells at 10^-5 M incubated for 48 hrs by sulforhodamine B assay; conditions: MCF7, 48 h, read-out: GI
[28] = tested on: NCI-H322M; assay: Growth inhibition of human NCI-H322M cells at 10^-5 M incubated for 48 hrs by sulforhodamine B assay; conditions: read-out: GI
[29] = tested on: HCT-116; assay: Growth inhibition of human HCT116 cells at 10^-5 M incubated for 48 hrs by sulforhodamine B assay; conditions: HCT-116, 48 h, read-out: GI
[30] = tested on: 786-0; assay: Growth inhibition of human 786-0 cells at 10^-5 M incubated for 48 hrs by sulforhodamine B assay; conditions: 786-0, 48 h, read-out: GI
[31] = tested on: SN12C; assay: Growth inhibition of human SN12C cells at 10^-5 M incubated for 48 hrs by sulforhodamine B assay; conditions: read-out: GI
[32] = tested on: SK-MEL-5; assay: Growth inhibition of human SK-MEL-5 cells at 10^-5 M incubated for 48 hrs by sulforhodamine B assay; conditions: SK-MEL-5, 48 h, read-out: GI
[33] = tested on: LOX IMVI; assay: Growth inhibition of human LOXIMVI cells at 10^-5 M incubated for 48 hrs by sulforhodamine B assay; conditions: read-out: GI
[34] = tested on: SNB-75; assay: Growth inhibition of human SNB75 cells at 10^-5 M incubated for 48 hrs by sulforhodamine B assay; conditions: SNB-75, 48 h, read-out: GI
[35] = tested on: OVCAR-8; assay: Growth inhibition of human OVCAR8 cells at 10^-5 M incubated for 48 hrs by sulforhodamine B assay; conditions: OVCAR-8, 48 h, read-out: GI
[36] = tested on: IGROV-1; assay: Growth inhibition of human IGROV1 cells at 10^-5 M incubated for 48 hrs by sulforhodamine B assay; conditions: IGROV-1, 48 h, read-out: GI
[37] = tested on: SR; assay: Growth inhibition of human SR cells at 10^-5 M incubated for 48 hrs by sulforhodamine B assay; conditions: read-out: GI
[38] = tested on: Hs-578T; assay: Growth inhibition of human Hs 578T cells at 10^-5 M incubated for 48 hrs by sulforhodamine B assay; conditions: read-out: GI
[39] = tested on: MDA-MB-231; assay: Growth inhibition of human MDA-MB-231 cells at 10^-5 M incubated for 48 hrs by sulforhodamine B assay; conditions: MDA-MB-231, 48 h, read-out: GI

Row | Compound | inhibition of growth at 10 µM [1] | inhibition of growth at 10 µM [2] | inhibition of growth at 10 µM [3] | inhibition of growth at 10 µM [4] | inhibition of growth at 10 µM [5] | inhibition of growth at 10 µM [6] | inhibition of growth at 10 µM [7] | inhibition of growth at 10 µM [8] | inhibition of growth at 10 µM [9] | inhibition of growth at 10 µM [10] | inhibition of growth at 10 µM [11] | inhibition of growth at 10 µM [12] | inhibition of growth at 10 µM [13] | inhibition of growth at 10 µM [14] | inhibition of growth at 10 µM [15] | inhibition of growth at 10 µM [16] | inhibition of growth at 10 µM [17] | inhibition of growth at 10 µM [18] | inhibition of growth at 10 µM [19] | inhibition of growth at 10 µM [20] | also measured
1 | N=C1Nc2c(sc3ccc(Cl)cc23)C(c2ccccc2O)N1 (stereo not drawn) | 3.66% | 0.44% | 1.38% | 7.68% | 38% | 4.61% | 6.19% | -16.7% | 23.3% | 0.95% | 9.9% | 1.39% | -1.61% | 10.5% | -5.8% | -8.23% | 18.8% | 7.92% | -13.9% | 6.2% | inhibition of growth at 10 µM [21]: -8.53%; inhibition of growth at 10 µM [22]: -6.6%; inhibition of growth at 10 µM [23]: -3.35%; inhibition of growth at 10 µM [24]: -4.84%; inhibition of growth at 10 µM [25]: -1.68%; inhibition of growth at 10 µM [26]: 8.57%; inhibition of growth at 10 µM [27]: 13.9%; inhibition of growth at 10 µM [28]: 4.18%; inhibition of growth at 10 µM [29]: 10.7%; inhibition of growth at 10 µM [30]: -0.24%; inhibition of growth at 10 µM [31]: -22.4%; inhibition of growth at 10 µM [32]: 2.66%; inhibition of growth at 10 µM [33]: -0.7%; inhibition of growth at 10 µM [34]: 22.4%; inhibition of growth at 10 µM [35]: -6.18%; inhibition of growth at 10 µM [36]: 17.4%; inhibition of growth at 10 µM [37]: 10.2%; inhibition of growth at 10 µM [38]: -10.5%; inhibition of growth at 10 µM [39]: -5.69%
2 | N#Cc1cnn(C2=Nc3c(sc4ccc(Cl)cc34)C(c3cccc([N+](=O)[O-])c3)N2)c1N (stereo not drawn) | 4.09% | 8.24% | -4.05% | 4.1% | 25.1% | -6.04% | 5.36% | -13.6% | -10.5% | -1.07% | 5.04% | -2.52% | 4.37% | 19.8% | -4.58% | -11.9% | 15.2% | 5.59% | 10.1% | -6.43% | inhibition of growth at 10 µM [21]: -5.54%; inhibition of growth at 10 µM [22]: -2.52%; inhibition of growth at 10 µM [23]: -2.52%; inhibition of growth at 10 µM [24]: -3.91%; inhibition of growth at 10 µM [25]: -7.11%; inhibition of growth at 10 µM [26]: 7.54%; inhibition of growth at 10 µM [27]: 29.9%; inhibition of growth at 10 µM [28]: 6.34%; inhibition of growth at 10 µM [29]: 5.22%; inhibition of growth at 10 µM [30]: 1%; inhibition of growth at 10 µM [31]: -7.06%; inhibition of growth at 10 µM [32]: 4.88%; inhibition of growth at 10 µM [33]: 12.5%; inhibition of growth at 10 µM [34]: 11.5%; inhibition of growth at 10 µM [35]: -2.67%; inhibition of growth at 10 µM [36]: 23.1%; inhibition of growth at 10 µM [37]: -0.62%; inhibition of growth at 10 µM [38]: 3.32%; inhibition of growth at 10 µM [39]: 22.9%
